Measured values as given in patent US4258199A, “Method for preparing cyclic ethers and thioethers including oxygen isomers and sulfur analogs of prostacyclin” (Research Corporation, priority 1978, dated 1981).
Structures can show the parent of a compound that is named as a salt.

Key:
[1] = half-life in saline / stability in solution (Table 1); type: physicochemical; conditions: 250° C. (so in the source); for half-life: read-out: t 1/2 saline
Description: The removal of the protecting groups R^1, R^2 and R^3 from the resulting products of the oxidation, i.e, the allylic oxygen cyclic ethers or sulfones or the vinylic sulfoxides, or sulfones, can be carried out with acid or base or sequentially with both, if necessary, and yields prostacyclin isomers and analogs. A particularly useful prostacyclin sulfur analog, 6,9α-thiaprostacyclin ester can be obtained by reducing a 6,9α-sulfoxaprostacyclin ester--obtained as described supra--with a reducing agent such as trimethylsilyliodide.

[2] = tested on: human and rabbit citrated platelet-rich plasma; test: platelet aggregation, citrated platelet-rich plasma in a chronolog aggregometer (agonistic and antagonistic activity vs ADP); type: cell-based; conditions: 20 mM and 2 μM (so in the source), inhibition of aggregation by 2 μM ADP, or antagonism of 5 mM prostacyclin
Description: Effects of prostacyclin analogs on platelet aggregation was evaluated using human and rabbit citrated platelet-rich plasma in a chronolog aggregometer at […]. Each of the analogs was tested at two concentrations (20 mM and 2 μM) for agonistic activity (inhibition of aggregation induced by 2 μM ADP) and antagonistic activity (prevention of the inhibition of ADP-induced aggregation by 5 mM prostacyclin).

[3] = tested on: cat coronary artery; test: isolated perfused cat coronary artery, perfusion pressure; conditions: isolated perfused cat right coronary artery, 37° C., change in perfusion pressure
Description: Effects of prostacyclin analogs on isolated perfused cat coronary arteries were measured as follows.
Cats of either sex (2.5-3.5 kg) were anesthetized with sodium pentobarbital (30 mg/kg) given intravenously. Hearts were rapidly excised and placed in oxygenated (95% O2 +5% CO2) ice-cold Krebs-Henseleit (K-H) solution of the following millimolar composition: NaCl, 118; KCl, 4.75; CaCl2.H2 O, 2.54; KH2 PO4, 1.19; MgSO4.7H2 O, 1.19; NaHCO3, 12.5; glucose, 10.00. A 20-gauge stainless steel cannula was inserted into the right coronary artery via the coronary ostium. Distal to the cannula, approximately 1 cm of coronary artery was dissected free of surrounding tissue. The section of right coronary artery with the cannula in place was excised from the heart and immediately transferred to a constant flow perfusion apparatus.
The perfusion apparatus consists of a reservoir containing 20 ml of warm (37° C.) oxygenated (95% O2 +5% CO2) K-H solution which bathes the coronary artery and serves as recirculating perfusate. An increase in perfusion pressure indicates vasoconstriction, whereas a decrease in perfusion pressure signifies vasodilation. Following an initial 1 hr. equilibrium period, vascular responsiveness was established by adding 25 mM KCl. After washing with fresh K-H solution for 20-30 mins., the preparation achieved a relatively constant low basal tone. Basal perfusion pressure averaged 50±2.5 mm Hg. Fresh K-H dilutions of stock prostacyclin analog concentrations were added to the perfusate reservoir in 0.1-0.2 ml volumes. Changes in perfusion pressure in response to prostacyclin analog addition generally plateaus within 5 mins. of administration.

[4] = stability of the sodium salt in solution (preparative examples); type: physicochemical; conditions: sodium salt after hydrolysis with NaOH in 90% ethanol
Description: Acidification of this compound in aqueous solutions leads to the corresponding acid which can be extracted with ether and purified chromatographically.
The critical intermediate for this synthesis is 11,15-diol, 5-phenylseleno,6,9α-thiaprostacyclin methyl ester IV (R^1 =--CH3, R^2 =R^3 =H, Z=--S--). The preparation of this intermediate is described in Example 10a. When this intermediate was oxidized with 3.3 equivalents of m-chloroperbenzoic acid in methylene chloride -78°→20° C. for 24 hours, the 6,9α-sulfoprostacyclin methyl ester IX was produced in 85% yield (IX, R^1 =--CH3, R^2 =R^3 =H, n=2). It was isolated by prep layer chromatography and hydrolyzed with NaOH in 90% ethanol at 25° C. to afford the corresponding sodium salt IX.

[5] = solubility (analytical data of methyl ester); type: physicochemical
[6] = background statement; cited from earlier work

t 1/2 saline [1] [h] | half-life [1] [h] | Molecule | Biological Activity: Platelet Aggregation [2] | Biological Activity: Cat Coronary Artery [3] | also measured
> 24 | – | 6,9-sulfo-4(E)isoprostacyclin, 6αisomer | Inhibitor | Constrictor(M) | –
> 24 | – | 6,9-sulfo-4(E)isoprostacyclin, 6βisomer | Antagonist | Constrictor | –
> 3 | – | CCCCCC(O)/C=C/C1C(O)CC2OC(/C=C/CCC(=O)O)CC21 (stereo not drawn) [4(E)-9-deoxy-6,9α-epoxy-Δ^4 -isoprostacyclin(6α)] | Antagonist | Constrictor | –
> 3 | – | CCCCCC(O)/C=C/C1C(O)CC2OC(/C=C/CCC(=O)O)CC21 (stereo not drawn) [4(E)-9-deoxy-6,9α-epoxy-Δ^4 -isoprostacyclin(6β)] | Inhibitor(P) | Constrictor(P) | –
– | – | CCCCC[C@H](O)/C=C/[C@@H]1[C@H]2C/C(=C/CCCC(=O)O)S(=O)(=O)[C@H]2C[C@H]1O [5(Z)-6,9α-sulfoprostacyclin sodium salt] | – | – | stability of sodium salt in solution [4]: quantitatively stable in aqueous solution
– | – | CCCCC[C@H](O)/C=C/[C@@H]1[C@H]2C/C(=C/CCCC(=O)O)[S+]([O-])[C@H]2C[C@H]1O (stereo partly drawn) [5(Z)-6,9α-sulfoxaprostacyclin sodium salt] | – | – | stability of sodium salt in solution [4]: stable solution
– | – | CCCCC[C@H](O)/C=C/[C@@H]1[C@H]2CC(/C=C/CCC(=O)OC)S(=O)(=O)[C@H]2C[C@H]1O (stereo partly shown) [6,9-sulfo-4(E) is oprostacyclin methyl ester] | – | – | solubility [5]: CH2 Cl2 and common organic solvents
– | > 24 | CCCCC[C@H](O)/C=C/[C@@H]1[C@H]2C/C(=C/CCCC(=O)O)S(=O)(=O)[C@H]2C[C@H]1O [6,9-sulfo-5(Z)prostacyclin] | Antagonist(M) | Constrictor(M) | –
– | > 24 | CCCCC[C@H](O)/C=C/[C@@H]1[C@H]2C/C(=C\CCCC(=O)O)[S+]([O-])[C@H]2C[C@H]1O (stereo partly shown) [6,9-sulfoxa-5(E)prostacyclin] | Little activity | Little activity | –
– | > 24 | CCCCC[C@H](O)/C=C/[C@@H]1[C@H]2C/C(=C/CCCC(=O)O)[S+]([O-])[C@H]2C[C@H]1O (stereo partly shown) [6,9-sulfoxa-5(Z)prostacyclin] | Little activity | Little activity | –
– | > 3 | CCCCC[C@H](O)/C=C/[C@@H]1[C@H]2C/C(=C/CCCC(=O)O)S[C@H]2C[C@H]1O [6,9α-Thia-5(Z)prostacyclin] | Very little activity, if any | Very little activity, if any | –
– | – | CCCCC[C@H](O)/C=C/[C@@H]1[C@H]2C/C(=C/CCCC(=O)OC)S(=O)(=O)[C@H]2C[C@H]1O [6,9α-sulfoprostacyclin methyl ester] | – | – | solubility [5]: common organic solvents
– | – | CCCCC[C@H](O)/C=C/[C@@H]1[C@H]2C/C(=C/CCCC(=O)O)O[C@H]2C[C@H]1O [Natural Prostacyclin, 6,9α-oxido-11α,15α-dihydroxyprosta-(Z)5, (E)13-dienoic acid, reference compound] | Inhibitor(P) | Dilator(P) | biological half-life [6]: 2 minutes
